A word on the IC50: it is the concentration that gives 50% inhibition. A higher IC50 goes with lower potency. The pIC50 is the negative decadic logarithm of the IC50, by convention in mol/L. In general, pEC50 refers to the negative decadic logarithm of the EC50, by convention in mol/L. Higher therefore signals a low EC50.

From ChEMBL document CHEMBL4024736, “Recent progress on the treatment of Ebola virus disease with Favipiravir and other related strategies” (Bioorg Med Chem Lett, 2017) come the findings set out here.

A short description of experiment [1]: Antiviral activity against Respiratory syncytial virus A2 infected in Hep2 cells. Conditions: human respiratory syncytial virus, HEp-2. In kind it is functional, cell-based.
The test system of experiment [2] is Ebolavirus. Kind of experiment: Antiviral activity against Ebolavirus E718 infected in Vero E6 cells assessed as effective dose after 6 days by neutral red stain based microscopic method. In kind it is functional, Vero C1008.
The subject of experiment [3] is Ebolavirus. Description: Antiviral activity against Ebolavirus assessed as reduction in viral titer. In kind it is functional. Conditions: Orthoebolavirus.
Experiment [4] deals with Ebolavirus. Kind of experiment: Antiviral activity against Ebola virus Mayinga Zaire 1976 infected in IFNAR-/- C57BL/6 mouse at 300 mg/kg, po administered twice daily measured up to 6 days post infection. It is filed as functional.
The subject of experiment [5] is Ebolavirus. Description: Antiviral activity against Ebola virus Mayinga Zaire 1976 infected in IFNAR-/- C57BL/6 mouse assessed as survival at 300 mg/kg, po administered twice daily for 13 days measured after 3 weeks. The conditions noted are these: Orthoebolavirus. In kind it is functional.
The subject of experiment [6] is Ebolavirus. Description: Antiviral activity against Ebola virus Mayinga Zaire 1976 infected in IFNAR-/- C57BL/6 mouse assessed as biochemical correlates of disease at 300 mg/kg, po administered twice daily. In kind it is functional.
A short description of experiment [7]: Antiviral activity against Foot-and-mouth disease virus O/JPN/2000 by plaque reduction assay. It is filed as functional. On the technique in general: Plaque reduction counts the foci of infection that form in a cell layer.
Experiment [8] deals with Ebolavirus. Description: Antiviral activity against Ebolavirus E718 infected in A129 interferon alpha/beta receptor knockout immunodeficient mouse assessed as survival rate at 150 mg/kg, po administered twice daily for 14 days measured after 2 weeks post last dose relative to control. In kind it is functional. Conditions: Orthoebolavirus, 336 h.

pEC50, pIC50: −log10 of the molar value. Values after ≈ are worked out from the molar mass of the structure shown.

Compound `NC(=O)c1nc(F)cnc1O` [FAVIPIRAVIR] came in with an IC50 in experiment [1] of 41 µg/mL (≈ 261 µM). Besides, the ED in the experiment on Ebolavirus [2] came to 400 µM. In addition, the pIC50 with Ebolavirus [3] was 4.17. In addition, the Activity in the experiment on Ebolavirus [4] is recorded as 100%; in the experiment on Ebolavirus [6], 20%. Further, the survival at 300 mg/kg in the experiment with Ebolavirus [5] was found to be 100%. In experiment [7], the pEC50 was 4.92. In addition, the survival at 150 mg/kg in the experiment on Ebolavirus [8] is 100%.
